Data reported in patent publication US20260335293A1, “USE OF NOVEL COMPOUND FOR TREATING INTRACTABLE DISEASES” (YJ CERAPEUTICS INC., priority 2023, published 2026).

Legend:
[1] = tested on: microglia (OX-42); assay: Microglial activation in spinal cord of SNI model, OX-42 staining; type: in vivo, Sprague-Dawley rats; conditions: spinal cord L4-L5, 4 weeks after nerve injury
Procedure: (§1) To be used as a peripheral nerve injury animal model, a sciatic nerve injury (SNI) model was prepared (FIG. 1C). Specifically, 200 to 220 g of male adult Sprague-Dawley rats were anesthetized by intraperitoneal injection of chloral hydrate (500 mg/kg), and then three terminal branches (tibial, common peroneal, and sural nerves) of the right sciatic nerve were approached, and the tibia nerve and the peroneal nerve were tightly ligated with 4-0 silk, and neurectomy was performed at a distal 3 mm position of the ligation site. At this time, a Sham group was a group that exposed only the sciatic nerve without damage.
(§2) To analyze the activation of microglia in the spinal cord, which were known to play an important role in the induction/persistence of neuropathic pain, 4 weeks after nerve injury in the SNI animal model, the spinal cord of 4 and 5 lumbar vertebrae was stained with OX-42 to confirm changes in cell shape and intensity. […] The supernatant was transferred to a new microcentrifuge, the protein concentration was measured using a BCA kit, and samples for Western blot were prepared by adding a 1× sample buffer and boiling for 5 minutes. […]

[2] = tested on: p38MAPK; assay: p38MAPK phosphorylation in spinal cord of SNI model, Western blot; type: in vivo, Sprague-Dawley rats
Procedure: as §1, §2

[3] = tested on: astrocytes (GFAP); assay: Astrocyte activation in spinal cord of SNI model, GFAP immunohistochemistry and Western blot; type: in vivo, Sprague-Dawley rats; conditions: L4-5 spinal cord
[4] = tested on: p75; assay: p75 expression in urothelium of SCI model, RT-PCR and Western blot; type: in vivo, Sprague-Dawley rats; conditions: after SCI
[5] = tested on: proNGF in Raw 264.7 macrophage cell line; assay: proNGF expression in LPS-stimulated Raw 264.7 macrophage cell line; type: cell-based; conditions: LPS 1 μg/ml; YJ102 30 minutes before LPS
Procedure: (§3) In order to determine whether YJ102 affected the production of proNGF as a ligand of p75, the expression of proNGF in the bladder was confirmed by RT-PCR, Western blot analysis, and immunofluorescence staining. In addition, for further verification, a macrophage cell line Raw 264.7 (Korea Cell Line Bank, Seoul, Korea) was stimulated with 1 μg/ml of LPS, and the effect of YJ102 on the production of proNGF was investigated. At this time, YJ102 was dissolved in DMSO and treated 30 minutes before LPS treatment.

[6] = tested on: inflammatory factors in Raw 264.7 cell line; assay: Inflammatory factor mRNA in LPS-stimulated Raw 264.7 macrophage cell line, RT-PCR; type: cell-based; conditions: LPS-treated Raw 264.7, RT-PCR
Procedure: as §3
To confirm the effect of YJ102 on the expression of inflammatory factors in the bladder after spinal cord injury, the expression of inflammatory cytokines and chemokines, COX-2, iNOS, IL-6, IL-1β, MIP-1α, MIP-1β, MIP-2a, and Gro-α in bladder tissue was confirmed by RT-PCR analysis and Western blot analysis using the primers in Table 2 above. In addition, even in the Raw 264.7 cell line, the expression was verified by RT-PCR analysis.

[7] = tested on: skin tissue of psoriasis mouse model; assay: Epidermal layer thickness and dermal cell introduction (H&E) in IMQ psoriasis model; type: in vivo, C57BL/6 mouse; conditions: 5 mg/kg i.p. Days 2-4, Day 6
Procedure: (§4) Psoriasis caused by excessive production of skin cells was a chronic skin disease associated with various factors, including autoimmune diseases, and its symptoms included red and thickened skin and abnormally occurring scaling. […] Specifically, the back region of a C57BL/6 mouse (male, 18 to 20 g, 8 weeks) (Daehan Biolink, Eumseong, Korea) was shaved to remove hair, and then applied with IMQ cream (83 mg/day) (5%) for consecutive 5 days from Day 0 to Day 4 to induce psoriasis-like skin inflammation, and a normal control mouse (Sham) was applied with Vaseline cream (FIG. 16A).
(§5) In order to confirm the effect of YJ102 (Chemical Formula 1), a compound of the present disclosure, on psoriasis, YJ102 dissolved in DMSO, methyl pyrrolidinone, and water (1:1.5:1) was administered intraperitoneally (5 mg/kg) for a total of 3 days on Day 2, Day 3, and Day 4, and the Vehicle group was administered in the same amount of a solution of DMSO, methyl pyrrolidinone, and water (1:1.5:1) (FIG. 16A). To assess daily skin changes, PASI scores were used for erythema and scaling. The PASI score was evaluated as a severity scale of 0 to 4, in which 0 meant none, 1 meant mild, 2 meant moderate, 3 meant severe, and 4 meant very severe. […]
On day 6, the skin tissue of the psoriasis mouse model was stained with Hematoxyline & Eosin, and the epidermal layer thickness was measured. […]

[8] = tested on: spleen of psoriasis mouse model; assay: Spleen hypertrophy in IMQ psoriasis model; type: in vivo, C57BL/6 mouse; conditions: Day 6, vs Vehicle
Procedure: as §4
as §5, with “severe. (PASI Reference: Yashpal Manchanda, Abhishek De, Sudip Das, and Disha Chakraborty. Disease Assessment in Psoriasis. Indian J Dermatol. 2023 May-June; 68 (3): 278-281.)” for “severe.”

With `CCc1ccc(N(C(=O)COC)c2nc3cc(Cl)ccc3o2)cc1` [YJ102] the “microglia activation changes (OX-42 intensity)” value [1] was “significantly reduced”, the “amount of p-p38MAPK” value [2] was “significantly reduced” and the GFAP expression ([3]; Western blot) was “significantly decreased”. For the same compound, the GFAP expression intensity ([3]; immunohistochemistry) was “significantly decreased”, the p75 expression ([4]; RT-PCR (mRNA)) was “significantly reduced” and the p75 expression ([4]; Western blot (protein)) was “significantly reduced”. For the same compound, the “mRNA expression of proNGF” value [5] was “significantly inhibited”, the “protein expression of proNGF” value [5] was “significantly inhibited” and the “mRNA level of COX-2” value [6] was “significantly reduced”. For the same compound, the “mRNA level of IL-1β” value [6] was “significantly reduced”, the “mRNA level of IL-6” value [6] was “significantly reduced” and the “mRNA level of TNF-α” value [6] was “significantly reduced”. The “mRNA level of iNOS” value [6] was “significantly reduced”, the “number of cells introduced into the dermal layer” value [7] was “decreased to the Sham level” and the “reduction of epidermal layer thickness compared to Vehicle group” value [7] was “approximately 35%”. For the same compound, the “size of the spleen” value [8] was “significantly reduced” and the “weight of the spleen” value [8] was “significantly reduced”.
